The conditions of test [1]: 1:1 cyclodextrin:cortisol complex in water, reported values; cited from earlier work.
Test [2] can be described thus: Isothermal titration calorimetry (microcalorimetry) of cortisol complex. Format: binding. The settings on record: 1:1 cortisol complex, microcalorimetry / ITC. An excerpt:
The interaction between a sequestering agent and cortisol can be analyzed by physical methods such as nuclear magnetic resonance spectroscopy (nmr) (Fielding, L.: Tetrahedron, 56 (34), 6151-6170, 2000) and microcalorimetry (Stoedeman M. and Wadsoe I.: Pure Appl. Chem., 67(7), 1059-68, 1995). These techniques also allow one to establish the selectivity of the binding to cortisol in comparison with the other endogenous steroidal compounds.
The association constants for complex formation are determined by performing a titration of cyclodextrin into cortisol and recording the UV spectrum as a function of the cyclodextrin/steroid ratio. The change in absorption of cortisol at 246 nm (Δ A) upon stepwise addition of cyclodextrin is recorded. The best fit line to the data give Ka for the cortisol-cyclodextrin complex (Liu Y, Li, B, You C-C, Wada, T, Inoue Y. J. Org. Chem., 2001, 66, 225-232). The UV methodology provides a fairly good estimate of the association constant when this constant is below 10^5 M^−1. The results used for the determination of the association constant for the binding of cortisol to γ-cyclodextrin, β-cyclodextrin and to 2 γ-cyclodextrin derivatives are shown in FIG. 1. […] This is because the chromophore in cortisol is relatively weak and instrument signal to noise issues prevented the preparation of sufficiently dilute solutions. […] The high cortisol binding constant for these γ-cyclodextrin derivatives indicates these derivatives to be potentially very active cortisol sequestering agents. An alternative, but more laborious, method for the determination of the cortisol association constant is by isothermal titration calorimetry (see Wiseman et al. […], 131-137), which can be used to determine the high Ka's more accurately.

Test [3] can be described thus: UV titration of cyclodextrin into cortisol (absorbance at 246 nm). Format: binding. The settings on record: 1:1 cortisol:γ-cyclodextrin complex. From the text: UV-visible spectroscopy was used to monitor the complex formation between cortisol and a library of cyclodextrin derivatives. The UV spectrum of cortisol contains an absorption band having a maximum at 246 nm. The intensity of the UV line at 246 nm decreases upon complexation of cortisol by addition of a cyclodextrin host molecule. The decrease in the absorbance of an aqueous solution of the guest molecule (cortisol) upon addition of a typical host molecule (like a cyclodextrin derivative) is taken as evidence that the guest molecule has moved from the polar aqueous environment to the usually less polar environment of the interior of the host molecule. The methodology is well established in the field of supramolecular chemistry (Tsukube, H. et al. In Comprehensive Supramolecular Chemistry: Physical Methods in Supramolecular Chemistry. Davies J E D, Ripmeester J A, (Eds) Elsevier, Oxford, 1996: Vol 8, pp 425-483).
The association constants for complex formation are determined by performing a titration of cyclodextrin into cortisol and recording the UV spectrum as a function of the cyclodextrin/steroid ratio. The change in absorption of cortisol at 246 nm (Δ A) upon stepwise addition of cyclodextrin is recorded. The best fit line to the data give Ka for the cortisol-cyclodextrin complex (Liu Y, Li, B, You C-C, Wada, T, Inoue Y. J. Org. Chem., 2001, 66, 225-232). […]

Test [4] can be described thus: Urinary excretion of exogenous cortisol in the rat. In kind it is in vivo, Lister hooded rats. As for the experimental part:
Two groups of four rats (Lister hooded rats, 300-320 g) were administered (intravenously) either […] of cortisol alone (Group I) or cortisol followed after 15 minutes by 6-per-deoxy-6-per-(2,3-dihydroxypropylthio)-γ-cyclodextrin (Org 26276) as a single intravenous dose of 20 mg/kg (Group II). Each rat was placed in a metabolic cage for the collection of urine. Urine samples were collected for the first 5 hours and thereafter for the remainder of 24 hours The collected urine samples were subjected to HPLC-MS (high pressure liquid chromatograpy on a Phenomenex Luna (50×2 mm; […]) column coupled to a PE Sciex API 3000 Mass Spectrometer). The limit of quantitation for cortisol in urine was 2.5 ng/ml and 10 ng/ml in plasma.

Test [5] in a line: Urinary excretion of endogenous cortisol in the guinea pig. In kind it is in vivo. The conditions noted are these: iv 5 mg/250 g. Here is the method: In guinea piogs cortisol is endogenously produced, the basal level of which is approximately 120-150 ng/ml in plasma.

Where two headings read alike, the source gives them in different places. Marks after values point to notes of the source that are not given here.

As to Per-6-acetyl-β-CD, the “Association Constant (Ka)” value in test [1] is 3920 M⁻¹.
For the compound `OC[C@H]1O[C@@H]2O[C@H]3[C@H](O)[C@@H](O)[C@@H](O[C@H]4[C@H](O)[C@@H](O)[C@@H](O[C@H]5[C@H](O)[C@@H](O)[C@@H](O[C@H]6[C@H](O)[C@@H](O)[C@@H](O[C@H]7[C@H](O)[C@@H](O)[C@@H](O[C@H]8[C@H](O)[C@@H](O)[C@@H](O[C@H]9[C@H](O)[C@@H](O)[C@@H](O[C@H]1[C@H](O)[C@H]2O)O[C@@H]9CO)O[C@@H]8CO)O[C@@H]7CO)O[C@@H]6CO)O[C@@H]5CO)O[C@@H]4CO)O[C@@H]3CO` [γ-CD, γ-cyclodextrin], in test [1], the “Association Constant (Ka)” value is 2240 M⁻¹.
On to Hydroxypropyl-β-CD, for which the “Association Constant (Ka)” value in test [1] is 900 to 1000 M⁻¹.
Regarding `OC[C@H]1O[C@@H]2O[C@H]3[C@H](O)[C@@H](O)[C@@H](O[C@H]4[C@H](O)[C@@H](O)[C@@H](O[C@H]5[C@H](O)[C@@H](O)[C@@H](O[C@H]6[C@H](O)[C@@H](O)[C@@H](O[C@H]7[C@H](O)[C@@H](O)[C@@H](O[C@H]8[C@H](O)[C@@H](O)[C@@H](O[C@H]1[C@H](O)[C@H]2O)O[C@@H]8CO)O[C@@H]7CO)O[C@@H]6CO)O[C@@H]5CO)O[C@@H]4CO)O[C@@H]3CO` [β-CD, β-cyclodextrin], the “Association Constant (Ka)” value in test [1] was 1720 to 3000 M⁻¹.
Regarding `O=C(O)c1ccc(SCC2OC3OC4C(CSc5ccc(C(=O)O)cc5)OC(OC5C(CSc6ccc(C(=O)O)cc6)OC(OC6C(CSc7ccc(C(=O)O)cc7)OC(OC7C(CSc8ccc(C(=O)O)cc8)OC(OC8C(CSc9ccc(C(=O)O)cc9)OC(OC9C(CSc%10ccc(C(=O)O)cc%10)OC(OC%10C(CSc%11ccc(C(=O)O)cc%11)OC(OC2C(O)C3O)C(O)C%10O)C(O)C9O)C(O)C8O)C(O)C7O)C(O)C6O)C(O)C5O)C(O)C4O)cc1` (centres unmarked) [6-per-deoxy-6-per-(4-carboxyphenyl)thio-γ-cyclodextrin], the “Association Constant (Ka)” value in test [2] is on record as “˜80,000^b M^−1”.
As for Per-2,6-methyl-β-CD, the “Association Constant (Ka)” value in test [1] was 5910 M⁻¹.
On to `OC[C@H]1O[C@@H]2O[C@H]3[C@H](O)[C@@H](O)[C@@H](O[C@H]4[C@H](O)[C@@H](O)[C@@H](O[C@H]5[C@H](O)[C@@H](O)[C@@H](O[C@H]6[C@H](O)[C@@H](O)[C@@H](O[C@H]7[C@H](O)[C@@H](O)[C@@H](O[C@H]1[C@H](O)[C@H]2O)O[C@@H]7CO)O[C@@H]6CO)O[C@@H]5CO)O[C@@H]4CO)O[C@@H]3CO` [α-CD], for which the “Association Constant (Ka)” value in test [1] is 57 M⁻¹.
Take `O=C(O)CCSC[C@H]1O[C@@H]2O[C@H]3[C@H](O)[C@@H](O)[C@@H](O[C@H]4[C@H](O)[C@@H](O)[C@@H](O[C@H]5[C@H](O)[C@@H](O)[C@@H](O[C@H]6[C@H](O)[C@@H](O)[C@@H](O[C@H]7[C@H](O)[C@@H](O)[C@@H](O[C@H]8[C@H](O)[C@@H](O)[C@@H](O[C@H]9[C@H](O)[C@@H](O)[C@@H](O[C@H]1[C@H](O)[C@H]2O)O[C@@H]9CSCCC(=O)O)O[C@@H]8CSCCC(=O)O)O[C@@H]7CSCCC(=O)O)O[C@@H]6CSCCC(=O)O)O[C@@H]5CSCCC(=O)O)O[C@@H]4CSCCC(=O)O)O[C@@H]3CSCCC(=O)O` [6-per-deoxy-6-per-(2-carboxyethyl)thio-γ-cyclodextrin]: the Ka in test [3] is listed as ~30,000 M^−1. In addition, the “Association Constant (Ka)” value is reported as ~40,000 M^−1 in test [2] and 40000* M^−1 in test [2] (listed as Per-6-deoxy-per-6-(2-carboxyethyl)thio-γ-cyclodextrin).
“6-per-deoxy-6-per-(2,3-dihydroxypropylthio)-γ-cyclodextrin [Org 26276]”: the Ka in test [3] (listed as Example 1) is reported as >100,000^a M^−1. The “enhancement of excretion of cortisol compared to the control group” value in test [4] (20 mg/kg iv, versus group that received cortisol alone) is recorded as “approximately 10 fold”. For the same compound, the “mean cortisol level in the urine” value in test [4] (iv cortisol followed after 15 minutes by 20 mg/kg iv, urine collected in the first 5 hours) was 111 ± 78 ng/mL. Further, in test [5], the “increase of amount of urinary cortisol excreted during 24 hours compared to the control group” value amounted to 3 fold.

(Values after patent publication US20040048830A1, “Use of cortisol-sequestering agents for the treatment of hypercortisolaemia related disorders” (priority 2000, published 2004).)
